Assay results as given in patent US11739074B2, “Ras inhibitors” (Revolution Medicines, Inc., priority 2019, dated 2023).

The molecules below were run on AsPC-1 (K-Ras G12D) (assay: Potency assay: pERK in AsPC-1 cells). Details: Homo sapiens, ASPC1; AsPC-1 cells, K-Ras G12D; read-out: pERK EC50 (AsPC-1 KRAS G12D).
Type: cell-based

CCn1c(-c2cccnc2[C@H](C)OC)c2c3cc(ccc31)-c1cc(O)cc(c1)C[C@H](NC(=O)[C@H](C(C)C)N(C)C(=O)C1CN(S(=O)(=O)[C@@H]3CN3C)C1)C(=O)N1CCC[C@H](N1)C(=O)OCC(C)(C)C2 (single isomer, unassigned) [Compound 118] was tested. Which EC50 did it give?
Its EC50 is less than 5 µM.

How did the EC50 turn out when CCn1c(-c2cccnc2[C@H](C)OC)c2c3cc(ccc31)-c1cccc(c1)C[C@H](NC(=O)[C@H](C(C)C)N(C)C(=O)[C@H]1CC[C@H](N=C=NC(C)C)C1)C(=O)N1CCC[C@H](N1)C(=O)OCC(C)(C)C2 [Compound 124] was run?
The EC50 was less than 5 µM.

The molecules below were run on AsPC-1 (K-Ras G12D) (assay: CellTiter-Glo cell viability assay, AsPC-1). Details: Homo sapiens, ASPC1, 120 h, AsPC-1, K-Ras G12D, 5-day treatment; read-out: AsPC-1 Cell Viability IC50.
Type: cell-based
Method: Determination of Cell Viability in RAS Mutant Cancer Cell Lines
Protocol: CellTiter-Glo® Cell Viability Assay
Note—The following protocol describes a procedure for monitoring cell viability of K-Ras mutant cancer cell lines in response to a compound of the invention. Other RAS isoforms may be employed, though the number of cells to be seeded will vary based on cell line used.
Test compounds (132.5 nL) were directly dispensed into the assay plates containing cells. […] On day 5, assay plates and their contents were equilibrated to room temperature for approximately 30 minutes. […] Luminescence was measured using the PerkinElmer Enspire. Data were normalized by the following: (Sample signal/Avg. DMSO)*100. The data were fit using a four-parameter logistic fit.

Which IC50 does the source give for CCn1c(-c2cccnc2[C@H](C)OC)c2c3cc(ccc31)-c1cc(O)cc(c1)C[C@H](NC(=O)[C@H](C(C)C)N(C)C(=O)C1CN(S(=O)(=O)[C@@H]3CN3C)C1)C(=O)N1CCC[C@H](N1)C(=O)OCC(C)(C)C2 (single isomer, unassigned) [Compound 118] here?
The IC50 was greater than 10 µM.

Which IC50 does the source give for CCn1c(-c2cccnc2[C@H](C)OC)c2c3cc(ccc31)-c1cc(O)cc(c1)C[C@H](NC(=O)[C@H](C(C)C)N(C)C(=O)N1CCN(C(=O)[C@H]3CN3)C(=O)C1)C(=O)N1CCC[C@H](N1)C(=O)OCC(C)(C)C2 [Compound 143] here?
The IC50 was greater than 10 µM.

CCn1c(-c2cnccc2COC)c2c3cc(ccc31)-c1cc(O)cc(c1)C[C@H](NC(=O)[C@H](C(C)C)N(C)C(=O)c1ccc(NC(=O)[C@H]3CN3)cn1)C(=O)N1CCC[C@H](N1)C(=O)OCC(C)(C)C2 [47 A and B] was tested. Which IC50 did it give?
The IC50 was greater than 10 µM.

How did the IC50 turn out when CCn1c(-c2cccnc2[C@H](C)OC)c2c3cc(ccc31)-c1cc(O)cc(c1)C[C@H](NC(=O)[C@H](C(C)C)N(C)C(=O)c1ccc([C@@H]3CN3)cc1)C(=O)N1CCC[C@H](N1)C(=O)OCC(C)(C)C2 [Compound 131] was run?
Its IC50 is greater than 10 µM.

For CCn1c(-c2cccnc2[C@H](C)OC)c2c3cc(ccc31)-c1cc(O)cc(c1)C[C@H](NC(=O)[C@H](C(C)C)N(C)C(=O)N(C)C1CN(C(=O)[C@H]3CN3)C1)C(=O)N1CCC[C@H](N1)C(=O)OCC(C)(C)C2 [Compound 203], which IC50 is on record?
Its IC50 is greater than 10 µM.

How did the IC50 turn out when CCn1c(-c2cccnc2[C@H](C)OC)c2c3cc(ccc31)-c1cc(O)cc(c1)C[C@H](NC(=O)[C@H](C(C)C)N1CCC3(CN(C(=O)[C@H]4CN4)C3)C1=O)C(=O)N1CCC[C@H](N1)C(=O)OCC(C)(C)C2 [Compound 115] was run?
The IC50 was greater than 10 µM.

With CCn1c(-c2cccnc2[C@H](C)OC)c2c3cc(ccc31)-c1cc(O)cc(c1)C[C@H](NC(=O)[C@H](C(C)C)N1CCC3(CN(C(=O)[C@@H]4CN4)C3)C1=O)C(=O)N1CCC[C@H](N1)C(=O)OCC(C)(C)C2 [Compound 109] as the molecule, how does the IC50 read?
Its IC50 is greater than 10 µM.

Which IC50 does the source give for CCn1c(-c2cccnc2[C@H](C)OC)c2c3cc(ccc31)-c1cc(O)cc(c1)C[C@H](NC(=O)[C@H](C(C)C)N1CC[C@@H](NC(=O)[C@H]3CN3)C1=O)C(=O)N1CCC[C@H](N1)C(=O)OCC(C)(C)C2 [Compound 130] here?
The IC50 was greater than 10 µM.

Which IC50 does the source give for CCn1c(-c2cnccc2COC)c2c3cc(ccc31)-c1cccc(c1)C[C@H](NC(=O)[C@H](C(C)C)N1CC[C@@H](CN=C=NCCOC)C1)C(=O)N1CCC[C@H](N1)C(=O)OCC(C)(C)C2 [Compound 80] here?
The IC50 was 1 to 10 µM.

How did the IC50 turn out when CCn1c(-c2cnccc2COC)c2c3cc(ccc31)-c1cc(O)cc(c1)C[C@H](NC(=O)[C@H](C(C)C)N(C)C(=O)CN1C(=O)[C@H]3N[C@H]3C1=O)C(=O)N1CCC[C@H](N1)C(=O)OCC(C)(C)C2 [Compound 98] was run?
Its IC50 is greater than 10 µM.

With CCn1c(-c2cccnc2[C@H](C)OC)c2c3cc(ccc31)-c1cc(O)cc(c1)C[C@H](NC(=O)[C@H](C(C)C)N(C)C(=O)N1CC(NC(=O)[C@H]3CN3)C1)C(=O)N1CCC[C@H](N1)C(=O)OCC(C)(C)C2 [Compound 189] as the molecule, how does the IC50 read?
The IC50 was greater than 10 µM.

CCn1c(-c2cccnc2[C@H](C)OC)c2c3cc(ccc31)-c1cccc(c1)C[C@H](NC(=O)[C@H](C(C)C)N(C)C(=O)[C@H]1C[C@H](N=C=Nc3c(C)cccc3C)C1)C(=O)N1CCC[C@H](N1)C(=O)OCC(C)(C)C2 [Compound 126] was tested. Which IC50 did it give?
The IC50 was greater than 10 µM.

How did the IC50 turn out when CCn1c(-c2cccnc2[C@H](C)OC)c2c3cc(ccc31)-c1cc(O)cc(c1)C[C@H](NC(=O)[C@@H](COC1CN(C(=O)[C@H]3CN3)C1)C(C)C)C(=O)N1CCC[C@H](N1)C(=O)OCC(C)(C)C2 [Compound 312] was run?
Its IC50 is greater than 10 µM.

How did the IC50 turn out when CCn1c(-c2cccnc2[C@H](C)OC)c2c3cc(ccc31)-c1cc(O)cc(c1)C[C@H](NC(=O)[C@H](C(C)C)N(C)C(=O)N1C[C@@H]3[C@H]1CCN3C(=O)[C@H]1CN1)C(=O)N1CCC[C@H](N1)C(=O)OCC(C)(C)C2 [Compound 250] was run?
The IC50 was greater than 10 µM.

How did the IC50 turn out when CCn1c(-c2cccnc2[C@H](C)OC)c2c3cc(ccc31)-c1cccc(c1)C[C@H](NC(=O)[C@H](C(C)C)N(C)C(=O)[C@H]1CC[C@H](N=C=NCc3ccccc3OC)C1)C(=O)N1CCC[C@H](N1)C(=O)OCC(C)(C)C2 [Compound 76] was run?
Its IC50 is 1 to 10 µM.

Which IC50 does the source give for CCn1c(-c2cccnc2[C@H](C)OC)c2c3cc(ccc31)-c1cccc(c1)C[C@H](NC(=O)[C@H](C(C)C)N(C)C(=O)CCN=C=NCc1ccccc1OC)C(=O)N1CCC[C@H](N1)C(=O)OCC(C)(C)C2 [Compound 73] here?
Its IC50 is 1 to 10 µM.

For CCn1c(-c2cnccc2COC)c2c3cc(ccc31)-c1cccc(c1)C[C@H](NC(=O)[C@H](C(C)C)N(C)C(=O)CC1(N=C=Nc3ccc(OC)cc3)CC1)C(=O)N1CCC[C@H](N1)C(=O)OCC(C)(C)C2 [65 A and B], which IC50 is on record?
The IC50 was 1 to 10 µM.

How did the IC50 turn out when CCn1c(-c2cccnc2[C@H](C)OC)c2c3cc(ccc31)-c1cc(O)cc(c1)C[C@H](NC(=O)[C@H](C(C)C)N(C)C(=O)N1CCN(C(=O)[C@@H]3CN3)C(=O)C1)C(=O)N1CCC[C@H](N1)C(=O)OCC(C)(C)C2 [Compound 194] was run?
The IC50 was greater than 10 µM.

For CCn1c(-c2cccnc2[C@H](C)OC)c2c3cc(ccc31)-c1cc(O)cc(c1)C[C@H](NC(=O)[C@H](C(C)C)N(C)C(=O)[C@H]1CCN(C(=O)[C@H]3CN3)[C@H]1C)C(=O)N1CCC[C@H](N1)C(=O)OCC(C)(C)C2 [Compound 206], which IC50 is on record?
Its IC50 is greater than 10 µM.

With CCn1c(-c2cccnc2[C@H](C)OC)c2c3cc(ccc31)-c1cc(O)cc(c1)C[C@H](NC(=O)[C@@H](COC1CCN(C(=O)[C@H]3CN3)CC1)C(C)C)C(=O)N1CCC[C@H](N1)C(=O)OCC(C)(C)C2 [Compound 211] as the molecule, how does the IC50 read?
The IC50 was greater than 10 µM.

Which IC50 does the source give for CCn1c(-c2cccnc2[C@H](C)OC)c2c3cc(ccc31)-c1cc(O)cc(c1)C[C@H](NC(=O)[C@H](C(C)C)N1CC[C@@]3(CCN(C(=O)[C@@H]4N[C@@H]4C4CC4)C3)C1=O)C(=O)N1CCC[C@H](N1)C(=O)OCC(C)(C)C2 [Compound 128] here?
The IC50 was 1 to 10 µM.

With CCn1c(-c2cccnc2[C@H](C)OC)c2c3cc(ccc31)-c1cc(O)cc(c1)C[C@H](NC(=O)[C@H](C(C)C)N(C)C(=O)c1nc(NC(=O)[C@H]3CN3)cs1)C(=O)N1CCC[C@H](N1)C(=O)OCC(C)(C)C2 [Compound 212] as the molecule, how does the IC50 read?
Its IC50 is greater than 10 µM.

With CCn1c(-c2cccnc2[C@H](C)OC)c2c3cc(ccc31)-c1cc(O)cc(c1)C[C@H](NC(=O)[C@H](C(C)C)N(C)C(=O)N1CC[C@@H](N(C)C(=O)[C@H]3CN3)C1)C(=O)N1CCC[C@H](N1)C(=O)OCC(C)(C)C2 [Compound 252] as the molecule, how does the IC50 read?
The IC50 was greater than 10 µM.

Which IC50 does the source give for CCn1c(-c2cccnc2[C@H](C)OC)c2c3cc(ccc31)-c1csc(n1)C[C@H](NC(=O)[C@H](C(C)C)N(C)C(=O)N1CC[C@H]1CN(C)C(=O)[C@@H]1CN1)C(=O)N1CCC[C@H](N1)C(=O)OCC(C)(C)C2 [Compound 235] here?
Its IC50 is greater than 10 µM.

Which IC50 does the source give for CCn1c(-c2cnccc2COC)c2c3cc(ccc31)-c1cccc(c1)C[C@H](NC(=O)[C@H](C(C)C)N(C)C(=O)CCN=C=NCc1ccccc1C)C(=O)N1CCC[C@H](N1)C(=O)OCC(C)(C)C2 [82 A and B] here?
The IC50 was 1 to 10 µM.

Which IC50 does the source give for CCn1c(-c2cccnc2[C@H](C)OC)c2c3cc(ccc31)-c1cc(O)cc(c1)C[C@H](NC(=O)[C@H](C(C)C)N(C)C(=O)N1C[C@@H]3[C@H]1CCN3C(=O)[C@@H]1CN1)C(=O)N1CCC[C@H](N1)C(=O)OCC(C)(C)C2 [Compound 251] here?
Its IC50 is greater than 10 µM.

CCn1c(-c2cccnc2[C@H](C)OC)c2c3cc(ccc31)-c1cc(O)cc(c1)C[C@H](NC(=O)[C@H](C(C)C)N(C)C(=O)C1CC3(C1)CN(C(=O)[C@@H]1CN1)C3)C(=O)N1CCC[C@H](N1)C(=O)OCC(C)(C)C2 [Compound 180] was tested. Which IC50 did it give?
Its IC50 is greater than 10 µM.

With CCn1c(-c2cnccc2COC)c2c3cc(ccc31)-c1cccc(c1)C[C@H](NC(=O)[C@H](C(C)C)N(C)C(=O)CCN=C=NCc1ccc(OC)cc1OC)C(=O)N1CCC[C@H](N1)C(=O)OCC(C)(C)C2 [61 A and B] as the molecule, how does the IC50 read?
Its IC50 is 1 to 10 µM.

CCn1c(-c2cnccc2COC)c2c3cc(ccc31)-c1cccc(c1)C[C@H](NC(=O)[C@H](C(C)C)N(C)C(=O)CCN=C=Nc1ccc(OC)cc1)C(=O)N1CCC[C@H](N1)C(=O)OCC(C)(C)C2 [15 A and B] was tested. Which IC50 did it give?
Its IC50 is greater than 10 µM.

How did the IC50 turn out when CCn1c(-c2cccnc2[C@H](C)OC)c2c3cc(ccc31)-c1cc(O)cc(c1)C[C@H](NC(=O)[C@H](C(C)C)N(C)C(=O)N1CC(NC(=O)[C@@H]3CN3)C1)C(=O)N1CCC[C@H](N1)C(=O)OCC(C)(C)C2 [Compound 188] was run?
Its IC50 is greater than 10 µM.

CCn1c(-c2cccnc2[C@H](C)OC)c2c3cc(ccc31)-c1cc(O)cc(c1)C[C@H](NC(=O)[C@H](C(C)C)N(C)C(=O)c1ccc([C@H]3CN3)cc1)C(=O)N1CCC[C@H](N1)C(=O)OCC(C)(C)C2 [Compound 145] was tested. Which IC50 did it give?
Its IC50 is greater than 10 µM.

With CCn1c(-c2cccnc2[C@H](C)OC)c2c3cc(ccc31)-c1cc(O)cc(c1)C[C@H](NC(=O)[C@H](C(C)C)N(C)C(=O)N1CC[C@@H](N(C)C(=O)[C@@H]3CN3)C1)C(=O)N1CCC[C@H](N1)C(=O)OCC(C)(C)C2 [Compound 253] as the molecule, how does the IC50 read?
Its IC50 is greater than 10 µM.

How did the IC50 turn out when CCn1c(-c2cccnc2[C@H](C)OC)c2c3cc(ccc31)-c1cc(O)cc(c1)C[C@H](NC(=O)[C@H](C(C)C)N1CC[C@H](NC(=O)[C@H]3CN3)C1=O)C(=O)N1CCC[C@H](N1)C(=O)OCC(C)(C)C2 [Compound 213] was run?
Its IC50 is greater than 10 µM.

Same assay, conditions: Homo sapiens, ASPC1, 120 h, read-out: AsPC-1 Cell Viability IC50, AsPC-1, K-Ras G12D, 5-day treatment

CCn1c(-c2cccnc2[C@H](C)OC)c2c3cc(ccc31)-c1cc(O)cc(c1)C[C@H](NC(=O)[C@H](C(C)C)N(C)C(=O)CN(C)C(=O)[C@H]1N[C@@H]1C1CC1)C(=O)N1CCC[C@H](N1)C(=O)OCC(C)(C)C2 [Compound 135] was tested. Which IC50 did it give?
Its IC50 is 0.1 to 1 µM.
